Assay results as given in EP2910557A1, “Enantiopure tetrasubstituted pyrrolidines as scaffolds for proteasome inhibitors and medicinal applications thereof” (Ikerchem, S.L., priority 2014, dated 2015).

Tests used:
[1] = target: T1, Human erythrocyte 20S proteasome (Homo sapiens, UniProt P28074); experiment: In vitro enzymatic assay of proteasome inhibitory activity (Suc-Leu-Leu-Val-Tyr-AMC substrate); assay type: biochemical; conditions: for inhibition at 0.05 µM: Concentration 50 nM; for IC50: human erythrocyte 20S proteasome, 10 µM Suc-Leu-Leu-Val-Tyr-AMC, 37°C
T1 construct: Enzyme: Human erythrocyte 20S proteasome; from tissue; host or cells: human erythrocytes
Description: Example 20: In vitro enzymatic assay of proteasome inhibitory activity.
Substrate: Suc-Leu-Leu-Val-Tyr-AMC
Assay buffer: 250 mM HEPES, pH 7.5, 0.5 mM EDTA, 0.03% SDS, 0.05% Igepal CA-630.
Enzyme: Human erythrocyte 20S proteasome
In vitro proteasome inhibitory activity of the compounds of the invention is evaluated by spectrofluorimetric quantitation of AMC. Stock solutions of compounds of the invention are prepared in dimethyl sulphoxide (DMSO). Test compound and/or vehicle is preincubated with […] enzyme (human erythrocyte 20S proteasome) in modified HEPES buffer pH 7.5 and 1% final concentration of DMSO for 15 minutes at 37°C. The reaction is initiated by addition of 10 µM Suc-Leu-Leu-Val-Tyr-AMC for another 30 minutes incubation period at 37°C. Determination of the release of AMC is read spectrophotometrically (excitation, 380 nm; emission, 460 nm). IC50 values are determined by a non-linear, least squares regression analysis using MathlQTM (ID Business Solutions Ltd., UK).

A431 = experiment: Cancer cell growth inhibition, 72 h treatment; assay type: cell-based; conditions: Homo sapiens
Description: (§1) Cell culture-based assays were used to evaluate the ability of compounds of the invention to inhibit cancer cell growth.
(§2) Cells were obtained from the American Type Culture Collection (ATCC) and the European Collection of Cell Cultures. Cells were thawed in their appropriate media plus supplements (see table below). Cells were passaged at confluence by washing once in HBSS cation-free followed by a 3 minutes incubation with trypsin ([0.5 µg/ml]/EDTA [0.2 µg/ml]) (Gibco-BRL, 15400054) solution in HBSS at 37°C (except non-adherent cell lines - hematologic), and transferred to their appropriate media plus supplements. Prior to seeding at defined cell concentration, cells were recovered in medium, centrifuged, taken up in medium and counted.
(§3) All treatments were performed in triplicate. Experiments were carried out in 96-well cell culture plates (Cultek) and the cell lines seeded at the density mentioned in the table above and cultured at 37°C with 5% CO2. After 24h, media were supplemented by 100 µl/well of diluted test compound at variable final concentrations and incubated for 72 hours. Then, AlamarBlue® Reagent (Biosource DAL1100) was added to each well and incubated at 37°C for 4 hours. Relative fluorescent intensity that correlates with the number of living cells was read in a Cytofluor plate reader (Millipore) at 535/590 nm (Excitation/emission). After reading the AlamarBlue® signal, the hexosaminidase activitity was measured according to the following protocol: medium was removed and cells were washed once with PBS. 60 µl of substrate solution (p-nitrophenol-N-acetyl-beta-D-glucosaminide 7.5 mM [Sigma N-9376], sodium citrate 0.1 M, pH 5.0, 0.25% Triton X-1 00) was added to each well and incubated at 37°C for 1-2 hours; after this incubation time, a bright yellow colour appears; then, plates could be developed by adding 90 µl of developer solution (Glycine 50 mM, pH 10.4; EDTA 5 mM), and absorbance was recorded at 405 nm.
(§4) Note: In all cases assays were performed in Alamar Blue with the exception of those indicated (* = Hexosaminidase assay)

A549 = experiment: Cancer cell growth inhibition, 72 h treatment; assay type: cell-based; conditions: Homo sapiens
Description: as §1, §2, §3, §4

BxPC-3 = experiment: Cancer cell growth inhibition, 72 h treatment; assay type: cell-based; conditions: Homo sapiens
Description: as §1, §2, §3, §4

COLO 205 = experiment: Cancer cell growth inhibition, 72 h treatment; assay type: cell-based; conditions: Homo sapiens
Description: as §1, §2, §3, §4

DU-145 = experiment: Cancer cell growth inhibition, 72 h treatment; assay type: cell-based; conditions: Homo sapiens, Prostate cancer DU-145, Alamar Blue
Description: as §1, §2, §3, §4

Daoy = experiment: Cancer cell growth inhibition, 72 h treatment; assay type: cell-based; conditions: Homo sapiens, Brain Daoy, Alamar Blue
Description: as §1, §2, §3, §4

HCT-116 = experiment: Cancer cell growth inhibition, 72 h treatment; assay type: cell-based; conditions: Homo sapiens, Colon cancer HCT-116, Alamar Blue
Description: as §1, §2, §3, §4

HT-1080 = experiment: Cancer cell growth inhibition, 72 h treatment; assay type: cell-based; conditions: Homo sapiens, Fibrosarcoma HT-1080, Alamar Blue
Description: as §1, §2, §3, §4

HT-29 = experiment: Cancer cell growth inhibition, 72 h treatment; assay type: cell-based; conditions: Homo sapiens, Colon cancer HT-29, Alamar Blue
Description: as §1, §2, §3, §4

HeLa = experiment: Cancer cell growth inhibition, 72 h treatment; assay type: cell-based; conditions: Homo sapiens, Cervical HeLa, Alamar Blue
Description: as §1, §2, §3, §4

K562 = experiment: Cancer cell growth inhibition, 72 h treatment; assay type: cell-based; conditions: Homo sapiens, Hematologic K562, Alamar Blue
Description: as §1, §2, §3, §4

LS174T = experiment: Cancer cell growth inhibition, 72 h treatment; assay type: cell-based; conditions: Homo sapiens, Colon cancer LS174T, Alamar Blue
Description: as §1, §2, §3, §4

LoVo = experiment: Cancer cell growth inhibition, 72 h treatment; assay type: cell-based; conditions: Homo sapiens, Colon cancer LoVo, Alamar Blue
Description: as §1, §2, §3, §4

MCF-7 = experiment: Cancer cell growth inhibition, 72 h treatment; assay type: cell-based; conditions: Homo sapiens, MCF7, Breast cancer MCF-7, Alamar Blue
Description: as §1, §2, §3, §4

MDA-MB-231 = experiment: Cancer cell growth inhibition, 72 h treatment; assay type: cell-based; conditions: Homo sapiens, Breast cancer MDA-MB-231, Alamar Blue
Description: as §1, §2, §3, §4

MIA PaCa-2 = experiment: Cancer cell growth inhibition, 72 h treatment; assay type: cell-based; conditions: Homo sapiens, Pancreatic cancer MIA PaCa-2, Alamar Blue
Description: as §1, §2, §3, §4

RAMOS = experiment: Cancer cell growth inhibition, 72 h treatment; assay type: cell-based; conditions: Homo sapiens, Hematologic RAMOS, Alamar Blue
Description: as §1, §2, §3, §4

SK-BR-3 = experiment: Cancer cell growth inhibition, 72 h treatment; assay type: cell-based; conditions: Homo sapiens, Breast cancer SK-BR-3, Alamar Blue
Description: as §1, §2, §3, §4

SK-HEP-1 = experiment: Cancer cell growth inhibition, 72 h treatment; assay type: cell-based; conditions: Homo sapiens, SK-HEP1, Liver cancer SK-HEP-1, Alamar Blue
Description: as §1, §2, §3, §4

SK-Mel-28 = experiment: Cancer cell growth inhibition, 72 h treatment; assay type: cell-based; conditions: Homo sapiens, Melanoma SK-Mel-28, Alamar Blue
Description: as §1, §2, §3, §4

SW480 = experiment: Cancer cell growth inhibition, 72 h treatment; assay type: cell-based; conditions: Homo sapiens
Description: as §1, §2, §3, §4

U-87 MG = experiment: Cancer cell growth inhibition, 72 h treatment; assay type: cell-based; conditions: Homo sapiens, Brain U-87 MG, Hexosaminidase assay (*)
Description: as §1, §2, §3, §4

NCI-H358 = experiment: Cancer cell growth inhibition, 72 h treatment; assay type: cell-based; conditions: Homo sapiens, Lung cancer NCI-H358, Alamar Blue
Description: as §1, §2, §3, §4

[2] = A-431, Epidermoid A431, Alamar Blue
[3] = Pancreatic cancer BxPC-3, Alamar Blue
[4] = Colon cancer COLO 205, Alamar Blue
[5] = Colon cancer SW480, Alamar Blue

inhibition at 0.05 µM [1]	IC50 [1]	EC50 (A431; [2])	EC50 (DU-145)	EC50 (Daoy)	EC50 (HCT-116)	EC50 (HT-1080)	EC50 (HT-29)	EC50 (HeLa)	EC50 (K562)	EC50 (LS174T)	EC50 (LoVo)	EC50 (MCF-7)	EC50 (MDA-MB-231)	EC50 (MIA PaCa-2)	EC50 (RAMOS)	EC50 (SK-BR-3)	EC50 (SK-HEP-1)	EC50 (SK-Mel-28)	EC50 (U-87 MG)	also measured	SMILES
50%	46 nM	410 nM	350 nM	570 nM	440 nM	460 nM	850 nM	11000 nM	2700 nM	260 nM	1700 nM	1300 nM	3200 nM	1900 nM	500 nM	570 nM	160 nM	620 nM	2000 nM	EC50 (A549; Lung cancer A549, Alamar Blue): 5800 nM; EC50 (BxPC-3; [3]): 970 nM; EC50 (COLO 205; [4]): 2400 nM; EC50 (SW480; [5]): 560 nM	CC(C)C[C@H](NC(=O)[C@@H]1N[C@H](c2ccc3ccccc3c2)[C@@H]([N+](=O)[O-])[C@@H]1c1ccccc1)B(O)O [Example 12, (R)-3-methyl-1-((2R,3R,4S,5R)-5-(naphthalen-2-yl)-4-nitro-3-phenylpyrrolidine-2-carboxamido)butylboronic acid]
79%	12 nM	–	910 nM	780 nM	640 nM	1400 nM	3500 nM	13000 nM	1200 nM	140 nM	2500 nM	490 nM	2800 nM	2400 nM	530 nM	440 nM	490 nM	1600 nM	500 nM	EC50 (A431; A-431, Epidermoid A431, Hexosaminidase assay (*)): 30 nM; EC50 (A549; Lung cancer A549, Hexosaminidase assay (*)): 2600 nM; EC50 (BxPC-3; Pancreatic cancer BxPC-3, Hexosaminidase assay (*)): 1500 nM; EC50 (COLO 205; [4]): 310 nM; EC50 (NCI-H358): 700 nM; EC50 (SW480; Colon cancer SW480, Hexosaminidase assay (*)): 2300 nM	CC(C)C[C@H](NC(=O)[C@@H]1N[C@H](c2ccccc2)[C@@H]([N+](=O)[O-])[C@@H]1c1cccs1)B(O)O [Example 10, (R)-3-methyl-1-((2R,3R,4S,5R)-4-nitro-5-phenyl-3-(thiophen-2-yl)pyrrolidine-2-carboxamido)butylboronic acid]
–	–	10000 nM	58000 nM	41000 nM	1800 nM	8900 nM	12300 nM	52000 nM	19000 nM	5900 nM	15000 nM	30000 nM	18000 nM	22000 nM	8700 nM	6200 nM	4200 nM	10000 nM	25000 nM	inhibition at 0.5 µM ([1]; Concentration 500 nM): 25%; EC50 (BxPC-3; [3]): 33000 nM; EC50 (COLO 205; Colon cancer COLO 205, Hexosaminidase assay (*)): 1900 nM; EC50 (NCI-H358): 24000 nM; EC50 (SW480; [5]): 8800 nM	CC(C)C[C@H](NC(=O)[C@@H]1CCCN1)B(O)O [MG-319, {(R)-3-methyl-1-[(S)-pyrrolidine-2-carboxamido]butyl}boronic acid, reference compound]
